{"source": "paper PMC10461232", "about": "“Structure-Based Design of Transport-Specific Multitargeted One-Carbon Metabolism Inhibitors in Cytosol and Mitochondria” (Journal of Medicinal Chemistry, 2023)", "key": {"[1]": {"target": "T1, SHMT2 (Homo sapiens, UniProt P34897)", "T1 construct": "made in house; host or cells: E. coli Rosetta (DE3)pLysS", "T1 sequence (P34897 30-504)": "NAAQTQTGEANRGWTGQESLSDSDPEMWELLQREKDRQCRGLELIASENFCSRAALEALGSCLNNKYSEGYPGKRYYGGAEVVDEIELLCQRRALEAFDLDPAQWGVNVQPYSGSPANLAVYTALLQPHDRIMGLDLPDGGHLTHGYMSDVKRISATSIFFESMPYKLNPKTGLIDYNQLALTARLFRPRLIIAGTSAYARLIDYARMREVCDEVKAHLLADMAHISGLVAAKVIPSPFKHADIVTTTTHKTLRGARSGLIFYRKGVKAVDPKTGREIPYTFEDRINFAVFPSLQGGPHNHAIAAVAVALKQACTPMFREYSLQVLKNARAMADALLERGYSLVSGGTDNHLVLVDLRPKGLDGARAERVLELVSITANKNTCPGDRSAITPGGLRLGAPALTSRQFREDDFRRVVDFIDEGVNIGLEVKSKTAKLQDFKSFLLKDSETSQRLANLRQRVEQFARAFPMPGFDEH", "assay": "SHMT2 inhibition assay coupled with MTHFD2, Ki", "assay_type": "biochemical", "details": "purified His-SHMT2, 50 μM THF, 25 °C; mean (SD), at least 3 replicates", "protocol": "(§1) MTHFD2 activities were assayed by a reaction with methylene THF and NAD^+. NADH production was measured by fluorescence (excitation 340 nm, emission 480 nm). Reaction conditions included 100 nM MTHFD2, 5 μM methylene THF, and concentrations of small-molecule inhibitor ranging from 0.02 nM to 2000 nM; NAD^+ (2.5 mM) was added to initiate the reaction. The reaction buffer consisted of 50 mM Tris-HCl, pH 7.5, 250 mM NaCl, 5 mM magnesium chloride, 5% glycerol, and 0.5 mM TCEP. […] To assay SHMT1 or SHMT2 (SHMT1/2) enzymes, a coupled reaction with His-MTHFD2 in 200-fold molar excess was used where the production of NADH was monitored by fluorescence with excitation at 360 nm and emission at 470 nm at 25 °C. The reactions contained 5 nM His-SHMT1/2, 50 μM THF, 20 mM serine, 10 μM His-MTHFD2, 2.5 mM NAD^+, and a range of inhibitor concentrations (final concentrations). The reactions were performed in buffer containing 20 mM sodium phosphate, pH 7.5, 100 mM KCl, 0.2 mM EDTA, and 5 mM β-Me. […] To calculate IC50 values for each inhibitor, initial velocities were graphed as a function of inhibitor concentrations and fit with a three-parameter nonlinear regression (GraphPad Prism 8.0). The equation [Ki = IC50/([S]/KM + 1)] was used to convert IC50’s to Ki values."}, "[2]": {"target": "T2, SHMT1 (Homo sapiens, UniProt P34896)", "T2 construct": "full-length SHMT1 with an N-terminal His6-tag; made in house; host or cells: E. coli Rosetta (DE3)pLysS", "T2 sequence (P34896 1-483)": "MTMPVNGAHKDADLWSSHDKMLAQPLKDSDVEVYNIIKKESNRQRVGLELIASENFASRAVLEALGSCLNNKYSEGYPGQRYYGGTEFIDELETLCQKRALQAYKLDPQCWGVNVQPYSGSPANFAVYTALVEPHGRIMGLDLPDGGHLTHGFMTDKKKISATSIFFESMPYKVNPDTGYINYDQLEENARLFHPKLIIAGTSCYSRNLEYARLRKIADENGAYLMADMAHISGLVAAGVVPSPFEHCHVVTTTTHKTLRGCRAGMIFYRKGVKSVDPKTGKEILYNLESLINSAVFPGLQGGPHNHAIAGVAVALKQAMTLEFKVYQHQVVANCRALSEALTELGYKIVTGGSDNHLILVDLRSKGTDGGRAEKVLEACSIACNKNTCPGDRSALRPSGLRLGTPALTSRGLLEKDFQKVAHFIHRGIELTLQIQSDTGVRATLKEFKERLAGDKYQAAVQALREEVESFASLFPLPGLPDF", "assay": "SHMT1 inhibition assay coupled with MTHFD2, Ki", "assay_type": "biochemical", "details": "purified His-SHMT1, 50 μM THF, 25 °C; mean (SD), at least 3 replicates", "procedure": "Kinetic measurements were recorded in triplicate using a flat, black-bottom, black-walled 96-well plate (Greiner Bio-One, 655900) and a BioTek Synergy Neo2 Plate Reader. […] To assay SHMT1 or SHMT2 (SHMT1/2) enzymes, a coupled reaction with His-MTHFD2 in 200-fold molar excess was used where the production of NADH was monitored by fluorescence with excitation at 360 nm and emission at 470 nm at 25 °C. The reactions contained 5 nM His-SHMT1/2, 50 μM THF, 20 mM serine, 10 μM His-MTHFD2, 2.5 mM NAD^+, and a range of inhibitor concentrations (final concentrations). The reactions were performed in buffer containing 20 mM sodium phosphate, pH 7.5, 100 mM KCl, 0.2 mM EDTA, and 5 mM β-Me. A BioTek Synergy Neo2 Plate Reader was used to record kinetic measurements in triplicate in a UV-transparent 96-well plate (Costar 3635) for GARFTase and AICARFTase assays and a black-well, black-bottom 96-well plate (Corning 3603). To calculate IC50 values for each inhibitor, initial velocities were graphed as a function of inhibitor concentrations and fit with a three-parameter nonlinear regression (GraphPad Prism 8.0). The equation [Ki = IC50/([S]/KM + 1)] was used to convert IC50’s to Ki values."}, "[3]": {"test_system": "KB tumor cells", "assay": "Metabolite rescue of growth inhibition in KB tumor cells", "assay_type": "cell-based, human", "details": "serine- and glycine-free medium, adenosine 60 μM", "description": "To confirm the targeted pathways for the pyrrolo[3,2-d]pyrimidine antifolates in tumor cells, we treated KB human tumor cells cultured in serine- and glycine-free media with the pyrrolo[3,2-d]pyrimidine compounds (4–9, 11–16) to test for the rescue by added nucleosides and glycine. Results were compared to those for AGF94, a pyrrolo[2,3-d]pyrimidine antifolate that inhibits GARFTase without effects on SHMT2,[69] and to compounds 1, 2, and 3, documented inhibitors of mitochondrial C1 metabolism and de novo purine biosynthesis in human tumor cells.[36] The results are shown in Figures 15 and S11 (Supplemental Information). […]\nFor some experiments with KB tumor cells, cells were cultured in serine-, glycine-, and folate-free RPMI 1640 (Fisher Scientific), supplemented with 10% dialyzed fetal bovine serum, antibiotics, 25 nM leucovorin, and 2 mM L-glutamine. In vitro growth inhibition was measured (above), without additions, or in the presence of folic acid (200 nM), or thymidine (10 μM), adenosine (60 μM), 5-aminoimidazole-4-carboxamide (AICA) (320 μM), and/or glycine (130 μM) to establish the inhibitory effects of the antifolate drugs on de novo thymidylate synthase versus de novo purine nucleotide biosynthesis (GARFTase and AICARFTase) or mitochondrial C1 metabolism at SHMT2.[36],[63],[64],[68],[69] […]"}, "[4]": {"target": "T3, human ATIC (Homo sapiens, UniProt P31939)", "T3 construct": "N-terminal His6-tagged full-length human ATIC; made in house; host or cells: E. coli Rosetta (DE3)pLysS", "T3 sequence (P31939 whole entry)": "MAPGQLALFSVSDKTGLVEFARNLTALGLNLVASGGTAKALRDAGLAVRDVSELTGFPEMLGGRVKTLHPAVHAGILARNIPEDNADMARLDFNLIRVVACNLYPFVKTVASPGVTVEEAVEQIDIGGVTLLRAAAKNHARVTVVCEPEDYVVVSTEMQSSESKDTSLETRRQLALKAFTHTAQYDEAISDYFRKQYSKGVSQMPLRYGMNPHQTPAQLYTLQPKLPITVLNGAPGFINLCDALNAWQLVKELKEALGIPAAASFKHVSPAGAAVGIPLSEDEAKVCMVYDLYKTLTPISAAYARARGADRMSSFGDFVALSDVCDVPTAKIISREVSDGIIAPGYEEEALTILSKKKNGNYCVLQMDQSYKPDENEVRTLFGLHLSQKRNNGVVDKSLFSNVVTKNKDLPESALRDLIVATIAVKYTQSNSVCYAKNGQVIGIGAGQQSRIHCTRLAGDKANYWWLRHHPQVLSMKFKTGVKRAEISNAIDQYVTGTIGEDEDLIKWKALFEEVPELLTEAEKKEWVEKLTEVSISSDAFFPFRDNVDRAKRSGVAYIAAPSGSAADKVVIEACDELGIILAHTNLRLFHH", "assay": "AICARFTase (ATIC) inhibition assay, Ki", "assay_type": "biochemical", "details": "purified His-ATIC, AICARFTase activity, 50 μM 10-formyl THF, 25 °C; mean (SD), at least 3 replicates", "protocol": "The cells were grown at 37 °C in 1 L cultures of LB media containing […] and […] until OD600 reached 0.6. Protein expression was induced by the addition of isopropyl β-D1-thiogalactopyranoside (IPTG, 500 μM).\nHis-ATIC was purified by Ni-NTA chromatography (Gold Biotechnology).[36] […] His-ATIC was eluted in 1 column volume fractions, 5 times with buffer containing 300 mM imidazole, 25 mM Tris-HCl, pH 7.5, 300 mM NaCl, and 5 mM β-Me. Size exclusion chromatography on a Superdex 200 16/60 (GE Healthcare) column was used for final purification using 20 mM Tris-HCl, pH 7.5, 150 mM NaCl, 50 mM KCl, 5 mM EDTA, and 5 mM dithiothreitol.\nas §1"}, "[5]": {"test_system": "RT16 (FRα) CHO cells", "details": "classic antifolates, CHO cells expressing human FRα; previously published; cited from earlier work"}, "[6]": {"test_system": "KB (RFC/PCFT/FRα) cells", "assay": "Growth inhibition, KB nasopharyngeal carcinoma cells", "assay_type": "cell-based, human", "details": "Homo sapiens, KB, folate-free RPMI 1640, 2 nM leucovorin, mean (SE)", "protocol": "The CHO cells were cultured in α-minimal essential medium (MEM) supplemented with 10% bovine calf serum (Fisher Scientific), penicillin (1000 U/mL)/streptomycin (1000 μg/mL), and 2 mM L-glutamine at 37 °C with 5% CO2. All of the R2 transfected cells (PC43-10, RT16, R2/PCFT4) were cultured in complete α-MEM media plus 1 mg/mL G418. Prior to the cytotoxicity assays (see below), RT16 and D4 cells were cultured for 3 days in complete folate-free RPMI 1640 (without added folate), and R2/PCFT4 and R2 cells were cultured in complete folate-free RPMI 1640 supplemented with dialyzed fetal bovine serum (Fisher Scientific) and 25 nM leucovorin plus 1 mg/mL G418. KB cells were routinely cultured in folate-free RPMI 1640 medium, supplemented with 10% fetal bovine serum (Fisher Scientific), penicillin-streptomycin solution, and 2 mM L-glutamine at 37 °C with 5% CO2.\nFor growth inhibition studies, cells (CHO, KB) were plated in 96-well dishes (∼2500–5000 cells/well, total volume of 200 μL medium) over a range of antifolate concentrations.[69],[77] The medium was folate-free RPMI 1640 with 10% dialyzed serum and antibiotics supplemented with 25 nM leucovorin for experiments with R2, PC43-10, and R2/PCFT4 cells. For experiments with RT16, D4, and KB cells, cells were cultured in folate-free RPMI medium with 10% dialyzed fetal bovine serum and antibiotics; the medium was supplemented with 2 nM leucovorin. […] Incubations were routinely for up to 96 h. Viable cells (reflecting cell viability) were assayed with Cell Titer Blue reagent (Promega, Madison, WI), with fluorescence measured (590 nm emission, 560 nm excitation) with a fluorescence plate reader."}, "[7]": {"test_system": "D4 (FRβ) CHO cells", "details": "classic antifolates, CHO cells expressing human FRβ; previously published; cited from earlier work"}, "[8]": {"test_system": "PC43-10 (RFC) CHO cells", "details": "classic antifolates, CHO cells expressing human RFC; previously published; cited from earlier work"}, "[9]": {"target": "T4, human GARFTase (Homo sapiens, UniProt P22102)", "T4 construct": "formyltransferase domain of human GARFTase (residues 808–1010); made in house; host or cells: E. coli Rosetta (DE3)pLysS", "T4 sequence (P22102 808-1010)": "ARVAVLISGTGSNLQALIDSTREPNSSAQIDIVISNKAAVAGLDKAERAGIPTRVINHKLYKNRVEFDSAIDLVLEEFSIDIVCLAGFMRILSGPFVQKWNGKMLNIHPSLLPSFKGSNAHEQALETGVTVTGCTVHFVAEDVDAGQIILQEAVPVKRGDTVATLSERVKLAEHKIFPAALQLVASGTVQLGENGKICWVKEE", "assay": "GARFTase inhibition assay, Ki (10-formyl THF to THF, absorbance 298 nm)", "assay_type": "biochemical", "details": "purified His-GARFTase, 40 μM 10-formyl THF, 37 °C; mean (SD), at least 3 replicates"}}, "data": [{"smiles": "Nc1nc2[nH]cc(CCc3ccc(C(=O)N[C@@H](CCC(=O)O)C(=O)O)cc3)c2c(=O)[nH]1", "note": "[PMX, N-{4-[2-(2-amino-3,4-dihydro-4-oxo-7H-pyrrolo[2,3-d]pyrimidin-5-yl)ethyl]benzoyl}-L-glutamic acid]", "values": [{"measurement": "Ki", "setting": "[1]", "value": "> 200", "unit": "µM"}, {"measurement": "Ki", "setting": "[2]", "value": "> 200", "unit": "µM"}]}, {"smiles": "Nc1nc2[nH]c(CCCc3ccc(C(=O)N[C@@H](CCC(=O)O)C(=O)O)s3)cc2c(=O)[nH]1", "note": "[AGF94, (S)-2-({5-[3-(2-amino-4-oxo-4,7-dihydro-3H-pyrrolo[2,3-d]pyrimidin-6-yl)-propyl]-thiophene-2-carbonyl}-amino)-pentanedioic acid]", "values": [{"measurement": "effect of adenosine alone on growth inhibition", "setting": "[3]", "value": "completely reversed"}]}, {"smiles": "CN(Cc1cnc2nc(N)nc(N)c2n1)c1ccc(C(=O)N[C@@H](CCC(=O)O)C(=O)O)cc1", "note": "[MTX, methotrexate]", "values": [{"measurement": "Ki", "setting": "[1]", "value": "98 ± 17", "unit": "µM"}, {"measurement": "Ki", "setting": "[2]", "value": "> 200", "unit": "µM"}]}, {"smiles": "C#CCC(Cc1cnc2nc(N)nc(N)c2n1)c1ccc(C(=O)N[C@@H](CCC(=O)O)C(=O)O)cc1", "note": "(stereo partly drawn) [PDX, N-(4-{1-[(2,4-diaminopteridin-6-yl)methyl]but-3-yn-1-yl}benzoyl)-L-glutamic acid]", "values": [{"measurement": "Ki", "setting": "[4]", "value": "> 200", "unit": "µM"}, {"measurement": "IC50", "setting": "[5]", "value": 0.043, "unit": "µM"}, {"measurement": "Ki", "setting": "[1]", "value": "> 200", "unit": "µM"}, {"measurement": "IC50", "setting": "[6]", "value": 0.00047, "unit": "µM"}, {"measurement": "Ki", "setting": "[2]", "value": "> 200", "unit": "µM"}, {"measurement": "IC50", "setting": "[7]", "value": 0.0025, "unit": "µM"}, {"measurement": "IC50", "setting": "[8]", "value": 0.00069, "unit": "µM"}, {"measurement": "Ki", "setting": "[9]", "value": "> 150", "unit": "µM"}]}]}
